Experiments:
[1] = biological target: T1, Cytochrome P450 11B2, mitochondrial (Homo sapiens, UniProt P19099)
T1 sequence (P19099 whole entry): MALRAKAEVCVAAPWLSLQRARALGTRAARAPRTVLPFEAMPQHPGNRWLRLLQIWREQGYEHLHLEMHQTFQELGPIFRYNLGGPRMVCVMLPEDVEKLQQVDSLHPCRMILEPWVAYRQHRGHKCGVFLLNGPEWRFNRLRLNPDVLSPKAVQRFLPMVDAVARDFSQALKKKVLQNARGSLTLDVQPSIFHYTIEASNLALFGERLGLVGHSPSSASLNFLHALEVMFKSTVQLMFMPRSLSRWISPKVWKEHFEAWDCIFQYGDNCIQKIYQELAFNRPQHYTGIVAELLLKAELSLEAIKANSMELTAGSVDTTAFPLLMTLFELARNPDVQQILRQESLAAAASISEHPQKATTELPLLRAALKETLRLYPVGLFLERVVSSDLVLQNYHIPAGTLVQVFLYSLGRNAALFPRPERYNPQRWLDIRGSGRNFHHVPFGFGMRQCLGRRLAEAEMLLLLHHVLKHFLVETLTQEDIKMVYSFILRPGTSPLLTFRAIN

CYP1A2 = biological target: T2, CYP1A2 (Homo sapiens, UniProt P05177); experiment: Inhibition of human recombinant CYP1A2 expressed in insect microsomes at 2 uM; format: ADME, Microsome
T2 sequence (P05177 whole entry): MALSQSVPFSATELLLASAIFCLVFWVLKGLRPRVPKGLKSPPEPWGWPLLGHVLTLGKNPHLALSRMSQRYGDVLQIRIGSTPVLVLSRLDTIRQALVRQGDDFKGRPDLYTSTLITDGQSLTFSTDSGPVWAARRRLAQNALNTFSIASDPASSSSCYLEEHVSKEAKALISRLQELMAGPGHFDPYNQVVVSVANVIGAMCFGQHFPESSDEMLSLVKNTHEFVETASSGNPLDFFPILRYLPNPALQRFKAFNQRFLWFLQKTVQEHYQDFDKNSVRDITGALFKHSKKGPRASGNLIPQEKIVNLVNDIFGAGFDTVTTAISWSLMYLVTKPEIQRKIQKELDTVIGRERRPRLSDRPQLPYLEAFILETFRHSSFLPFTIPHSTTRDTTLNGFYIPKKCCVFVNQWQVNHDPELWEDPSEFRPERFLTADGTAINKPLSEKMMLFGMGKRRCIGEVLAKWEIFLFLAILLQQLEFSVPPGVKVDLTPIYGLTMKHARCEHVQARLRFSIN

Cytochrome P450 2D6 = Cytochrome P450 2D6 (Homo sapiens, UniProt P10635); experiment: Inhibition of human recombinant CYP2D6 expressed in insect microsomes; format: ADME, Microsome
Cytochrome P450 2B6 = biological target: T3, Cytochrome P450 2B6 (Homo sapiens, UniProt P20813); experiment: Inhibition of human recombinant CYP2B6 expressed in insect microsomes; format: ADME, Microsome
T3 sequence (P20813 whole entry): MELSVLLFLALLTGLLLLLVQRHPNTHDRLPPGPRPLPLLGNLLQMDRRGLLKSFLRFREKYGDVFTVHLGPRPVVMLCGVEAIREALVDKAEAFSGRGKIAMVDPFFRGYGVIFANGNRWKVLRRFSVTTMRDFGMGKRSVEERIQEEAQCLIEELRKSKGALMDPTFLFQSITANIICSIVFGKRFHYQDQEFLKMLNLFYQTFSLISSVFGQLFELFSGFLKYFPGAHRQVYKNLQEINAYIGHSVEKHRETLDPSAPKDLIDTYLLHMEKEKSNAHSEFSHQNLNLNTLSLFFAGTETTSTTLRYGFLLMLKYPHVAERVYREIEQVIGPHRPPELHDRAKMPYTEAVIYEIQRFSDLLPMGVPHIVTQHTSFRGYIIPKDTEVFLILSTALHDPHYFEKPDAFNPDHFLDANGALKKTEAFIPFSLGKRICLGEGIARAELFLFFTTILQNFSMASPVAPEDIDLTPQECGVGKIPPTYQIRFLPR

Cytochrome P450 2C19 = Cytochrome P450 2C19 (Homo sapiens, UniProt P33261); experiment: Inhibition of human recombinant CYP2C19 expressed in insect microsomes; format: ADME, Microsome
Cytochrome P450 1A2 = biological target: T4, Cytochrome P450 1A2 (Homo sapiens, UniProt P05177)
T4 sequence (P05177 whole entry): T2 sequence (P05177 whole entry)

Cytochrome P450 2C9 = Cytochrome P450 2C9 (Homo sapiens, UniProt P11712); experiment: Inhibition of human recombinant CYP2C9 expressed in insect microsomes; format: ADME, Microsome
Homo sapiens = organism: Homo sapiens; experiment: Selectivity ratio of IC50 for human CYP11B1 to IC50 for human CYP11B2
CYP19 (aromatase) = biological target: T5, CYP19 (aromatase) (Homo sapiens, UniProt P11511); experiment: Inhibition of human placental CYP19 at 500 nM
T5 sequence (P11511 whole entry): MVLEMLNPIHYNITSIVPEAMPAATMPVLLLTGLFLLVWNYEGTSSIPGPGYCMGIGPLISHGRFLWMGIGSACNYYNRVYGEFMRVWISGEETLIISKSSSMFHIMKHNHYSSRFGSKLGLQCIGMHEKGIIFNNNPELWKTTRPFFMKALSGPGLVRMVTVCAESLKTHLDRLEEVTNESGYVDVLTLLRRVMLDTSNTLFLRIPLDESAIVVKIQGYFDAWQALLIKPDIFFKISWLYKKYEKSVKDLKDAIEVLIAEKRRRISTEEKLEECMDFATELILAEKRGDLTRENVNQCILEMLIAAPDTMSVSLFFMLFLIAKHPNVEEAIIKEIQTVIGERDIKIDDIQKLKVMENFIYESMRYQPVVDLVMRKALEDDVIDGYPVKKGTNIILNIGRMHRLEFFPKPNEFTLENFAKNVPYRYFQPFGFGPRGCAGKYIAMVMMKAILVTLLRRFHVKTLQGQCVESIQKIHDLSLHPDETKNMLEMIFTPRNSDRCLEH

CYP17 = biological target: T6, CYP17 (Homo sapiens, UniProt P05093); experiment: Inhibition of human recombinant CYP17 expressed in Escherichia coli at 2 uM
T6 sequence (P05093 whole entry): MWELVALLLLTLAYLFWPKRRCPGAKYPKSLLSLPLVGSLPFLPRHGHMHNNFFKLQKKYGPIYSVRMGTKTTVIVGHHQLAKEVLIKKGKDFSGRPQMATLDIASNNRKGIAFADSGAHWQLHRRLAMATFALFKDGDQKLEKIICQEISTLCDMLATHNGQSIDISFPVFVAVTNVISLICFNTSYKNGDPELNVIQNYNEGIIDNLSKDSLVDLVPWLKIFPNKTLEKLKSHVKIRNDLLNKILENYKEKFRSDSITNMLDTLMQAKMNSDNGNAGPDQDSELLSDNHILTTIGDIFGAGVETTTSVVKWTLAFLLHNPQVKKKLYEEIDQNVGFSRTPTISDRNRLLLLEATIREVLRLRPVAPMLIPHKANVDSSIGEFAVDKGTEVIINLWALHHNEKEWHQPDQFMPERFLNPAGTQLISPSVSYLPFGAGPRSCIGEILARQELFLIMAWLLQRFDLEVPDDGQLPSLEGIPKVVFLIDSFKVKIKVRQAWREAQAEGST

[2] = biological target: T7, Cytochrome P450 11B1, mitochondrial (Homo sapiens, UniProt P15538)
T7 sequence (P15538 whole entry): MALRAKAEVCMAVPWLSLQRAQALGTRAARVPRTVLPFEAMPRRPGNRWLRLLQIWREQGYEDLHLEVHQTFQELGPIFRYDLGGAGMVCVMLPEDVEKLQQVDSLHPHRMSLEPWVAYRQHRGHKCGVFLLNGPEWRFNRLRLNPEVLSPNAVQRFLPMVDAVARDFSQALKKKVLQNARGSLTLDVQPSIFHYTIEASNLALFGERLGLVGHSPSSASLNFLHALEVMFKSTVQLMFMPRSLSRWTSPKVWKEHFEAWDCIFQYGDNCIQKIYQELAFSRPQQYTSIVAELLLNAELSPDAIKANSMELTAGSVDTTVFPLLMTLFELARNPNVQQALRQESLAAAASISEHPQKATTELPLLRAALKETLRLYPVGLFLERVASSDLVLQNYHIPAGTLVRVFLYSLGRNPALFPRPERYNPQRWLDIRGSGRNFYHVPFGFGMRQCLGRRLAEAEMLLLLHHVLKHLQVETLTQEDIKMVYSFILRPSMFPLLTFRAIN

Cytochrome P450 3A4 = Cytochrome P450 3A4 (Homo sapiens, UniProt P08684); experiment: Inhibition of human recombinant CYP3A4 expressed in insect microsomes; format: ADME, Microsome
[3] = Cmax in Wistar rat at 5 mg/kg, po; format: ADME, organism-based; design: dose 5 mg/kg, route oral; details: in vivo

Sequence of Cytochrome P450 2D6 (P10635 whole entry): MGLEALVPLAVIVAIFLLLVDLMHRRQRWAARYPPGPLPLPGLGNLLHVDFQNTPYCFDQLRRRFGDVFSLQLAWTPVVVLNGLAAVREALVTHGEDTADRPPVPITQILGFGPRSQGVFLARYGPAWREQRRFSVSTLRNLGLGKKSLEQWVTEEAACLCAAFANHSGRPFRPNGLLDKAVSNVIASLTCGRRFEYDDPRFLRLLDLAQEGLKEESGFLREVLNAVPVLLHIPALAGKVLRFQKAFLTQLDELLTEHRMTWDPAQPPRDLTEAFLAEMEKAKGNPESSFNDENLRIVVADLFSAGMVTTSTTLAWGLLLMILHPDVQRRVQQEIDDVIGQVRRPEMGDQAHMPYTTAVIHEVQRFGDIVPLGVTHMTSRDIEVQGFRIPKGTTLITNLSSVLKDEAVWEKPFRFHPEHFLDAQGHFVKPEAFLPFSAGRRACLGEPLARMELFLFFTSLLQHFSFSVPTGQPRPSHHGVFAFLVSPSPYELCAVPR
Sequence of Cytochrome P450 3A4 (P08684 whole entry): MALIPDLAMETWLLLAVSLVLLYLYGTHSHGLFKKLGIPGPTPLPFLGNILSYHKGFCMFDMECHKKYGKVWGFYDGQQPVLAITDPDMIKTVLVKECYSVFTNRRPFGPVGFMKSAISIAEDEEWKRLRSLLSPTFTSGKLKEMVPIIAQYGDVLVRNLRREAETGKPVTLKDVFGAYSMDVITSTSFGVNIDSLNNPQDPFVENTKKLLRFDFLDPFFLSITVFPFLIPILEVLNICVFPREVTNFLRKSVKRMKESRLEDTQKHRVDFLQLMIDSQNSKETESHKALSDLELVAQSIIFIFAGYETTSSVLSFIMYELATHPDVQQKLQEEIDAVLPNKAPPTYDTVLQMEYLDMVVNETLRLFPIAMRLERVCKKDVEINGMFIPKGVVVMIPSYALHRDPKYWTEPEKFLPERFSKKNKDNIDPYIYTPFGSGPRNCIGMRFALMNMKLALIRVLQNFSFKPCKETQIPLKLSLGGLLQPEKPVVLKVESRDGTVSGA
Sequence of Cytochrome P450 2C9 (P11712 whole entry): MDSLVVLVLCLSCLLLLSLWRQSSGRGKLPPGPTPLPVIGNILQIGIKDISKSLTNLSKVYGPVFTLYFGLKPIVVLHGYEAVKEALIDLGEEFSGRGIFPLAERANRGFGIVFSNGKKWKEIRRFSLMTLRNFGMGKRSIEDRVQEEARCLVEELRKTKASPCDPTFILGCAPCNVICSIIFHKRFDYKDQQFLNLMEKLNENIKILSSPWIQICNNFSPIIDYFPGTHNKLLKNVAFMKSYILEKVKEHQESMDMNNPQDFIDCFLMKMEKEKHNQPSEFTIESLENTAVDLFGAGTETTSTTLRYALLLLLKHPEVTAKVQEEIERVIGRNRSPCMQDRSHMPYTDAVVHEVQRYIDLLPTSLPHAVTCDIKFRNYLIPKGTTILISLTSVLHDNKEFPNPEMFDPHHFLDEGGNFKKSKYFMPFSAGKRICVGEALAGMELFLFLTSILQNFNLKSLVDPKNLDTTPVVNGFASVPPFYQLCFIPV
Sequence of Cytochrome P450 2C19 (P33261 whole entry): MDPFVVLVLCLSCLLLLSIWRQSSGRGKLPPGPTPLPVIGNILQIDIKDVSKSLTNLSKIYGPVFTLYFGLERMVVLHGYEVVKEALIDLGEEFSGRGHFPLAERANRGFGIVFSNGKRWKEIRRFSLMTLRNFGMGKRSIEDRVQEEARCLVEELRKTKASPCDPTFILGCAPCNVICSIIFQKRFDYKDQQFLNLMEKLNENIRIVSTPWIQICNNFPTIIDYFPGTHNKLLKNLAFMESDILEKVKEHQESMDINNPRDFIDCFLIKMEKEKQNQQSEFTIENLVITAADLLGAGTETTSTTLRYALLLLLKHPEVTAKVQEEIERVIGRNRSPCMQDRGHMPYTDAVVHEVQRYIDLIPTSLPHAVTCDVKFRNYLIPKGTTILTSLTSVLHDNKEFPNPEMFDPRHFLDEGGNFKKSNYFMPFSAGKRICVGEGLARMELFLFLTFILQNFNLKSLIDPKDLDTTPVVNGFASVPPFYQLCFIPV

Row | IC50 [1] [nM] | inhibition at 2 µM (CYP1A2) [%] | Ratio IC50 (Homo sapiens) | IC50 [2] [nM] | SMILES | further results
1 | 2.1 | 80 | 121 | 255 | COc1ccc2cc(-c3cncc(C(C)=O)c3)ccc2c1 | IC50 (Cytochrome P450 2D6): > 200000 nM; IC50 (Cytochrome P450 2B6): > 50000 nM; IC50 (Cytochrome P450 2C19): > 200000 nM; IC50 (Cytochrome P450 1A2): 488 nM; IC50 (Cytochrome P450 2C9): > 200000 nM; inhibition at 0.5 µM (CYP19 (aromatase)): < 5%; inhibition at 2 µM (CYP17): 36%; IC50 (Cytochrome P450 3A4): 9070 nM
2 | 94 |  | 442 | 41600 | COc1ccc2cc(-c3cncc(C(N)=O)c3)ccc2c1 | 
3 | 94 | 93 | 95 | 8920 | COc1ccc2cc(-c3cncc(O)c3)ccc2c1 | 
4 | 5.1 | 85 | 73 | 373 | CCOc1cncc(-c2ccc3cc(OC)ccc3c2)c1 | 
5 | 4.2 | 91 | 57 | 238 | COc1cncc(-c2ccc3cc(OC)ccc3c2)c1 | IC50 (Cytochrome P450 2D6): > 25000 nM; IC50 (Cytochrome P450 2B6): > 25000 nM; IC50 (Cytochrome P450 2C19): > 25000 nM; IC50 (Cytochrome P450 1A2): 83 nM; IC50 (Cytochrome P450 2C9): 1890 nM; inhibition at 0.5 µM (CYP19 (aromatase)): 14%; inhibition at 2 µM (CYP17): 41%; IC50 (Cytochrome P450 3A4): 1910 nM
6 | 4.8 |  | 32 | 151 | COc1ccc2cc(-c3cncc(-c4ccccc4)c3)ccc2c1 | 
7 | 9.1 | 93 | 68 | 614 | COc1ccc2cc(-c3cncc(CO)c3)ccc2c1 | 
8 | 0.5 | 78 | 198 | 99 | COc1ccc2cc(-c3cncc(C(C)O)c3)ccc2c1 (stereo not given) | 
9 | 1220 |  | 31 | 37800 | COc1ccc2cc(-c3cncc(CC(=O)O)c3)ccc2c1 | 
10 | 0.2 |  | 50 | 10 | COc1ccc2cc(-c3cncc(C(C)OC)c3)ccc2c1 (stereo not given) | 
11 | 0.2 | 83 | 155 | 31 | COCc1cncc(-c2ccc3cc(OC)ccc3c2)c1 | 

The remaining lines, values behind:

Row | SMILES | IC50 [1] [nM] | inhibition at 2 µM (CYP1A2) [%] | Ratio IC50 (Homo sapiens) | IC50 [2] [nM] | further results
12 | COCc1ccncc1-c1ccc2cc(OC)ccc2c1 | 2.2 | 97 | 198 | 435 | 
13 | COc1cncc(-c2cc3ccc(OC)cc3cc2C)c1 | 3.8 | 91 | 230 | 875 | 
14 | COC(=O)c1cncc(-c2ccc3cc(OC)ccc3c2)c1 | 0.8 |  | 19 | 15 | 
15 | COc1ccc2cc(-c3cnccc3CO)ccc2c1 | 22 | 92 | 80 | 1760 | 
16 | COc1ccc2c(c1)CC(C)C(c1cccnc1)=C2 (stereo not given) | 3.3 | 73 | 79 |  | 
17 | COc1ccc2cc(-c3cncc4ccccc34)c(C)cc2c1 | 3.1 | 45 | 272 | 843 | 
18 | COc1ccc2cc(-c3cnccc3C)ccc2c1 | 0.8 | 98 | 143 | 114 | 
19 | Cc1nc2c([nH]1)c(=O)n(C)c(=O)n2Cc1ccco1 [FURAFYLLINE] |  | 55 |  |  | 
20 | N#Cc1ccc2c(c1)CCC(c1cccnc1)=C2 | 4.5 | 91 | 103 | 461 | 
21 | COC(=O)Cc1cncc(-c2ccc3cc(OC)ccc3c2)c1 | 6.9 |  | 29 | 199 | 
22 | Cc1ccncc1-c1ccc2cc(C#N)ccc2c1 | 0.6 | 86 | 87 | 52 | 
23 | COc1ccc2c(c1)CCC(c1cccnc1)=C2 |  | 98 |  |  | 
24 | COc1ccc2cc(-c3cccnc3)c(C)cc2c1 | 7 | 93 | 150 | 1050 | 
25 | COc1ccc2c(c1)CC(C)C(c1cncc3ccccc13)=C2 (stereo not given) | 0.5 | 6 | 128 | 64 | 
26 | COc1cncc(C2=Cc3ccc(OC)cc3CC2C)c1 (stereo not given) | 1.2 | 18 | 83 | 100 | 
27 | COc1ccc2cc(-c3cnccc3N)ccc2c1 | 13 | 58 | 117 | 1520 | IC50 (Cytochrome P450 2D6): 11100 nM; IC50 (Cytochrome P450 2B6): > 50000 nM; IC50 (Cytochrome P450 2C19): 45800 nM; IC50 (Cytochrome P450 1A2): 1420 nM; IC50 (Cytochrome P450 2C9): 49000 nM; inhibition at 0.5 µM (CYP19 (aromatase)): 47%; inhibition at 2 µM (CYP17): 42%; Cmax [3]: < 1.5 ng/mL; IC50 (Cytochrome P450 3A4): 21100 nM
